Test results taken from patent US10993947B2, “Treatment of skin lesions” (PIQUR THERAPEUTICS AG, priority 2016, dated 2021).
Marks after values point to notes of the source that are not given here.

Key:
[1] = system: excised pig skin; details: 1 %
From the text: Excised pig skin was placed in a climate chamber to control temperature and humidity. […] Before biopsies were taken the stratum corneum was removed by tape stripping and biopsies consisted of the remaining epidermis and entire dermis.

[2] = system: pS6 S235/S236 in A2058 cells; assay: In-cell Western blot, pS6 S235/S236; assay type: cell-based; details: Homo sapiens, 1 hour treatment
Method: (§1) Cells are fixed with 4% paraformaldehyde for 30 minutes at room temperature, washed 2 times with 1% BSA in PBS, permeabilized with 0.1% Triton X-100 in PBS/1% BSA for 30 minutes at room temperature and blocked with 5% goat serum in PBS/1% BSA/0.1% Triton X-100 for 30 minutes at room temperature. […] Cells are washed 3 times 5 minutes with PBS/1% BSA/0.1% triton and plate scanned with the Odyssey Infrared Scanning system using both 700 and 800 nm channels. […] To correct for background staining in the data analysis wells are treated only with secondary antibodies.
(§2) For data analysis the mean background signal from channel 700 nm and 800 nm are subtracted from each signal in channel 700 nm and 800 nm, respectively.
(§3) IC50 values of each compound are determined by plotting the normalized pPBK S473 and pS6 S235/S236 signals, respectively, versus the compound concentrations (in logarithmic scale) and then by fitting a sigmoidal dose-response curve with variable slope to the data using GraphPad™ Prism.

[3] = system: pig skin (lower epidermis and dermis); assay: Ex vivo pig skin penetration, first study (80% SBECD formulations); assay type: in vitro ADME
From the text: FIG. 3: PK profiles of nine formulations comprising the inventive compounds and control have been assessed. The control formulation Aldara (5% imiquimod) was applied to detect variations in skin permeability (local variability in the same animal and inter-subject variability). The stratum corneum was removed by tape stripping to avoid contamination during the biopsy extraction. […] One biopsy was taken from each control site. Additionally, 5 blank samples were taken.
Ex vivo and in vivo models to assess the penetration of various drug substances including the inventive compounds in the skin of pigs have been established. This model allows to assess the PK profile of several drug candidates including the inventive compounds in one subject, thereby enhancing comparability and avoiding inter-subject variability.
In the first study (FIG. 3, Table 15) the PK profiles of nine test formulations have been assessed using 80% SBECD either at pH3 or pH 7.

[4] = system: pPKB S473 in A2058 cells; assay: In-cell Western blot, pPKB S473; assay type: cell-based; details: Homo sapiens, 1 hour treatment
Method: as §1, §2, §3

[5] = biological target: T1, N-terminally GST-tagged mTOR (Homo sapiens, UniProt P42345); assay: In vitro mTOR binding assay (LanthaScreen TR-FRET); details: LanthaScreen kinase binding, Tracer 314; read-out: mTOR IC50 (binding)
T1 construct: truncated version: amino acids 1360-2549; purchased Life Technologies PR8683B
T1 sequence (P42345 1360-2549): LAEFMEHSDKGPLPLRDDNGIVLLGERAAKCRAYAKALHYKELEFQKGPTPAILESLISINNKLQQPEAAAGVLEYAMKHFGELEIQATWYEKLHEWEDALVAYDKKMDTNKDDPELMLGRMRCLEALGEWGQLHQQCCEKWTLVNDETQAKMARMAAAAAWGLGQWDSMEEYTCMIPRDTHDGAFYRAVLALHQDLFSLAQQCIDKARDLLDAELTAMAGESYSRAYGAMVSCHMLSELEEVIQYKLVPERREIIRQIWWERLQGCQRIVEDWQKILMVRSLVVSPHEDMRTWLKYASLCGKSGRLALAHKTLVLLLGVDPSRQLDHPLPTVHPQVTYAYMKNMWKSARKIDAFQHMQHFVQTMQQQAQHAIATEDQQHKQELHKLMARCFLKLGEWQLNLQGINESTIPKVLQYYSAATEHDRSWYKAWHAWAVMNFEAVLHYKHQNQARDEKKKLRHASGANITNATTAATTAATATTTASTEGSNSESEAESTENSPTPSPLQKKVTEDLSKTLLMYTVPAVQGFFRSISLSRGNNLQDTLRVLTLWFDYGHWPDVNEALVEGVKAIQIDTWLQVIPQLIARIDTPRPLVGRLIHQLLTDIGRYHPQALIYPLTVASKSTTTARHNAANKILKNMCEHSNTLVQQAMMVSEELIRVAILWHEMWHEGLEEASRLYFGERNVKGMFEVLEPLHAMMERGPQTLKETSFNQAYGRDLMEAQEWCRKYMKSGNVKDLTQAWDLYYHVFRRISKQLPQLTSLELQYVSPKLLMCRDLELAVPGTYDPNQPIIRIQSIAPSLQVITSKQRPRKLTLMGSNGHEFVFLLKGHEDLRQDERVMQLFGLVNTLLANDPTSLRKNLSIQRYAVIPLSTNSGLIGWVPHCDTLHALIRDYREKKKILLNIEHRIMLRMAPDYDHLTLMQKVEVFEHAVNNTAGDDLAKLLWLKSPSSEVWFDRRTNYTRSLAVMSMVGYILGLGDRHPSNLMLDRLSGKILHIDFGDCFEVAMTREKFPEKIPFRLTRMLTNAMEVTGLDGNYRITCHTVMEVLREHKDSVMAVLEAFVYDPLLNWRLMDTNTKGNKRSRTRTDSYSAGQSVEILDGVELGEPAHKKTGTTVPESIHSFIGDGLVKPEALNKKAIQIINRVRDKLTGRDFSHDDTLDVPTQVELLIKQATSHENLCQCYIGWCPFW
Method: A 10-point 4-fold serial dilution (highest concentration at 10 μmol/L and lowest concentration at 40 μmol/L) of each compound was tested for mTOR binding in duplicate in a 384-well plate. […] After 30 min incubation at RT, time-resolved FRET was measured with a Synergy 4 multi-mode microplate reader (Biotek Instruments) using the following settings: 100 microsecs delay before data collection, 200 microsecs time for data collection, 10 measurements per data point.
IC50 values of each compound were determined by plotting the emission ratio versus the compound concentrations (in logarithmic scale) and then by fitting a sigmoidal dose-response curve with variable slope to the data using GraphPad™ Prism.

Nc1cc(C(F)F)c(-c2nc(N3C4CCC3COC4)nc(N3C4CCC3COC4)n2)cn1 [Compound 3, 5-(4-(3-oxa-8-azabicyclo[3.2.1]octan-8-yl)-6-(3-oxa-8-azabicyclo[3.2.1]octan-8-yl)-1,3,5-triazin-2-yl)-4-(difluoromethyl)pyridin-2-amine]
skin concentration / skin PK profile [1]: comparable to Cpd1*
IC50 ([2]; A2058, 1 h): 105 nM
penetration into pig skin ([3]; 1% experimental formulations, 80% SBECD, ex vivo): penetrated into pig skin (lower epidermis and dermis) to a significant extent
intrinsic penetration properties compared with imiquimod (Aldara 5% cream) ([3]; ex vivo pig skin, estimated): slightly lower
IC50 ([4]; A2058, 1 h): 231 nM
IC50 [5]: 8 nM

Nc1cc(C(F)F)c(-c2nc(N3CCOCC3)cc(N3CCOCC3)n2)cn1 [Compound 18, 4-(difluoromethyl)-5-(4,6-dimorpholinopyrimidin-2-yl)pyridin-2-amine]
IC50 [2]: 256 nM
IC50 [4]: 243 nM
IC50 [5]: 31 nM

Nc1cc(C(F)(F)F)c(-c2cc(N3CCOCC3)nc(N3C4CCC3COC4)n2)cn1 [reference compound]
IC50 ([2]; A2058, 1 h): 562 nM
IC50 ([4]; A2058, 1 h): 564 nM
IC50 [5]: 88 nM

Nc1cc(C(F)F)c(-c2cc(N3CCOCC3)nc(N3CCOCC3)n2)cn1 [Compound 16, 4-(difluoromethyl)-5-(2,6-dimorpholinopyrimidin-4-yl)pyridin-2-amine]
IC50 [2]: 184 nM
IC50 [4]: 207 nM
IC50 [5]: 30 nM

CC1(C)COCCN1c1nc(-c2cnc(N)cc2C(F)F)nc(N2C3COCC2COC3)n1 [Compound 69, 4-(difluoromethyl)-5-[4-(3,3-dimethylmorpholin-4-yl)-6-(3,7-dioxa-9-azabicyclo[3.3.1]nonan-9-yl)-1,3,5-triazin-2-yl]pyridin-2-amine]
IC50 ([2]; A2058, 1 h): 140 nM
IC50 ([4]; A2058, 1 h): 244 nM
IC50 [5]: 21 nM

Nc1cc(C(F)F)c(-c2cc(N3CCOCC3)nc(N3C4CCC3COC4)n2)cn1 [Compound 23, 5-(2-(3-oxa-8-azabicyclo[3.2.1]octan-8-yl)-6-morpholinopyrimidin-4-yl)-4-(difluoromethyl)pyridin-2-amine]
IC50 ([2]; A2058, 1 h): 230 nM
IC50 ([4]; A2058, 1 h): 285 nM
IC50 [5]: 40 nM
